Structures can show the parent of a compound that is named as a salt.
Target: T1, ΔF508-CFTR (Homo sapiens, UniProt P13569, DEL508-508)
T1 construct: expressed in transfected cells
Assay: Membrane potential optical assay for potentiators of ΔF508-CFTR (FLIPR III, voltage sensing dyes)
Assay type: cell-based
Settings: for Emax: NIH3T3, 100% efficacy is the maximum response obtained with 4-methyl-2-(5-phenyl-1H-pyrazol-3-yl)phenol, ΔF508 CFTR NIH 3T3 cells; for EC50: temperature-corrected ΔF508 CFTR NIH 3T3 cells, forskolin activation
Source text: The assay utilizes fluorescent voltage sensing dyes to measure changes in membrane potential using a fluorescent plate reader (e.g., FLIPR III, Molecular Devices, Inc.) as a readout for increase in functional ΔF508-CFTR in NIH 3T3 cells.
To identify potentiators of ΔF508-CFTR, a double-addition HTS assay format was developed. This HTS assay utilizes fluorescent voltage sensing dyes to measure changes in membrane potential on the FLIPR III as a measurement for increase in gating (conductance) of ΔF508 CFTR in temperature-corrected ΔF508 CFTR NIH 3T3 cells.
Solutions • Bath Solution #1: (in mM) NaCl 160, KCl 4.5, CaCl2 2, MgCl2 1, HEPES 10, pH 7.4 with NaOH. • Chloride-Free Bath Solution: Chloride Salts in Bath Solution #1 are Substituted with Gluconate Salts.
NIH3T3 mouse fibroblasts stably expressing ΔF508-CFTR are used for optical measurements of membrane potential. The cells are maintained at 37° C. in 5% CO2 and 90% humidity in Dulbecco's modified Eagle's medium supplemented with 2 mM glutamine, 10% fetal bovine serum, 1×NEAA, β-ME, 1×pen/strep, and 25 mM HEPES in 175 cm^2 culture flasks. For all optical assays, the cells were seeded at ˜20,000/well in 384-well matrigel-coated plates and cultured for 2 hrs at 37° C. before culturing at 27° C. for 24 hrs. for the potentiator assay. For the correction assays, the cells are cultured at 27° C. or 37° C. with and without compounds for 16-24 hours. Electrophysiological Assays for assaying ΔF508-CFTR modulation properties of compounds.

T1 sequence (P13569 with tags, fused parts or gaps DEL508-508): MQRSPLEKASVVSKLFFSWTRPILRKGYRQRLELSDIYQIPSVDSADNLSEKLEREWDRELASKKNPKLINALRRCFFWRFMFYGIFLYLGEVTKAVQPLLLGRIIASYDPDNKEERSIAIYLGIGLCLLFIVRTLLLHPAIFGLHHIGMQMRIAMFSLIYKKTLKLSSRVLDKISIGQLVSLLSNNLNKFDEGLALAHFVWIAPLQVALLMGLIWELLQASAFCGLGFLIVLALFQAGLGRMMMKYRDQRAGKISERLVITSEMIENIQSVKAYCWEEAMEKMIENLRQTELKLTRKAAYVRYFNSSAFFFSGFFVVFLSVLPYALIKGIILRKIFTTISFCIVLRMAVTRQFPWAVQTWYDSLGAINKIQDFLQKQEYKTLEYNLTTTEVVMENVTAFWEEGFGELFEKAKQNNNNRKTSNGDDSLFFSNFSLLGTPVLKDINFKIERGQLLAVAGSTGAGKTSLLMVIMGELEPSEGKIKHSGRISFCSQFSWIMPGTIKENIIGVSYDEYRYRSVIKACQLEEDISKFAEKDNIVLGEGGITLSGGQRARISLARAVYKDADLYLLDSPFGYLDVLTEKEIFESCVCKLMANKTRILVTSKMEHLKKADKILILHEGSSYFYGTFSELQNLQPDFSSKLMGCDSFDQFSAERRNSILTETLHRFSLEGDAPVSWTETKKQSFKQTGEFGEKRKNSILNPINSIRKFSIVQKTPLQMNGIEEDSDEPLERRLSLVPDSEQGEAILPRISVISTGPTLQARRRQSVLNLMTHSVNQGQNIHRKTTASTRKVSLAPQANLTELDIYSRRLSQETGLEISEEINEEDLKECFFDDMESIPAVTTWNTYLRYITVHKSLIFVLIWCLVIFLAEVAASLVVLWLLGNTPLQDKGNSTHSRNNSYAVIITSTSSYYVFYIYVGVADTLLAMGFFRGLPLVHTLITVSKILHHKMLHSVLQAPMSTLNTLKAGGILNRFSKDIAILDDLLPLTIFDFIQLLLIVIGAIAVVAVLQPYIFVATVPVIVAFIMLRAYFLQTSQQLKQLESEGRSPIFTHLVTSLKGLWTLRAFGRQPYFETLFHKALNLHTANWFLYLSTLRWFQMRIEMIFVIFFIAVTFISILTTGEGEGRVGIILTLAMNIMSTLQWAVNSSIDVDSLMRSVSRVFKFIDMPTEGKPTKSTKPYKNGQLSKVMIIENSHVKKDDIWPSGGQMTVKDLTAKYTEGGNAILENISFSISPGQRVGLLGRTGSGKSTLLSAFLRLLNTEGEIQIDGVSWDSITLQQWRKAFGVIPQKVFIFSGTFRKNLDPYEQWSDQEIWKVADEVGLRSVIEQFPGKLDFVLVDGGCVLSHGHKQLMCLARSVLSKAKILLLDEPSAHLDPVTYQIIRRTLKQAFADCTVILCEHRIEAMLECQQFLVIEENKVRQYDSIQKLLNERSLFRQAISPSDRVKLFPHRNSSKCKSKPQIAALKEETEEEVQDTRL

Compound | Emax [%] | EC50 [µM]
CN(C)CC#Cc1cc(N2C3CCC2CC3)ccc1NC(=O)C1CNc2ccccc2O1 (stereo not drawn) [Compound 104] | 25 to 100 | 5 to 20
CN(C)CC#Cc1cc(C2CCCC2)c(O)cc1NC(=O)C1CNc2cc(OC(F)(F)F)ccc2O1 (stereo not drawn) [Compound 106] | > 100 | < 5
Cc1cccc2c1OC(C(=O)Nc1ccc(C(C)(C)C)c(O)c1)CN2 (stereo not drawn) [Compound 107] | 25 to 100 | < 5
CC1(c2cc(F)c(NC(=O)C3CNc4cc(OC(F)(F)F)ccc4O3)cc2O)CCCCC1 (stereo not drawn) [Compound 108] | 25 to 100 | < 5
O=C(Nc1ccc(O)c(OC(F)(F)F)c1)C1CNc2ccc(F)cc2O1 (stereo not drawn) [Compound 109] | 25 to 100 | 5 to 20
CN(C)CC#Cc1cc(C2CCCC2)ccc1NC(=O)C1CNc2cc(C#N)ccc2O1 (stereo not drawn) [Compound 110] | 25 to 100 | < 5
CN1CCC(c2cc(C3CCCC3)c(O)cc2NC(=O)C2CNc3cc(C#N)ccc3O2)CC1 (stereo not drawn) [Compound 111, 6-cyano-N-(4-cyclopentyl-5-hydroxy-2-(1-methylpiperidin-4-yl)phenyl)-3,4-dihydro-2H-benzo[b][1,4]oxazine-2-carboxamide] | < 25 | 5 to 20
CC(C)Oc1c(O)cccc1NC(=O)C1CNc2ccc(F)cc2O1 (stereo not drawn) [Compound 112] | 25 to 100 | 5 to 20
N#Cc1ccc2c(c1)NCC(C(=O)Nc1cc(O)c(C3CCCC3)cc1C1CCNCC1)O2 (stereo not drawn) [Compound 113] | < 25 | 5 to 20
CC1CCN(Cc2cc(C3CCCC3)c(O)cc2NC(=O)C2CNc3cc(OC(F)(F)F)ccc3O2)CC1 (stereo not drawn) [Compound 117] | > 100 | < 5
CCc1cc(CN2CCC(C)CC2)c(NC(=O)C2CNc3cc(OC(F)(F)F)ccc3O2)cc1O (stereo not drawn) [Compound 118] | > 100 | < 5
CC(C)(C)c1ccc(NC(=O)C2CNc3ccccc3S2)cc1O (stereo not drawn) [Compound 120, N-(4-tert-butyl-3-hydroxy-phenyl)-3,4-dihydro-2H-1,4-benzothiazine-2-carboxamide] | 25 to 100 | < 5
CC(C)(C)c1ccc(NC(=O)C2CNc3ccccc3S2(=O)=O)cc1O (stereo not drawn) [Compound 121, N-(4-tert-butyl-3-hydroxy-phenyl)-1,1-dioxo-3,4-dihydro-2H-benzo[b][1,4]thiazine-2-carboxamide] | 25 to 100 | < 5
Cc1cc(CN2CCC(C)CC2)c(NC(=O)C2CNc3cc(OC(F)(F)F)ccc3O2)cc1O (stereo not drawn) [Compound 126] | > 100 | < 5
Cc1ccc(NC(=O)C2CNc3cc(OC(F)(F)F)ccc3O2)c(-c2nc(CN(C)C)no2)c1 (stereo not drawn) [Compound 129] | 25 to 100 | < 5

Continued, values first:

Emax [%] | EC50 [µM] | Compound
25 to 100 | 5 to 20 | CC[N+](CC)(CC)CC#Cc1cc(C)ccc1NC(=O)C1CNc2cc(OC(F)(F)F)ccc2O1 (stereo not drawn) [Compound 102]
25 to 100 | < 5 | O=C(Nc1cc(O)c(C2CCCC2)cc1Cl)C1CNc2ccc(F)cc2O1 (stereo not drawn) [Compound 103]
> 100 | 5 to 20 | CS(=O)(=O)c1cc(C2CCCC2)c(O)cc1NC(=O)C1CNc2cc(OC(F)(F)F)ccc2O1 (stereo not drawn) [Compound 105]
25 to 100 | 5 to 20 | CN(C)CC#Cc1cc(F)ccc1NC(=O)C1CNc2cc(C#N)ccc2O1 (stereo not drawn) [Compound 114]
25 to 100 | < 5 | CN(C(=O)C1CNc2ccccc2O1)c1ccc(C(C)(C)C)c(O)c1 (stereo not drawn) [Compound 115, N-(4-tert-butyl-3-hydroxyphenyl)-N-methyl-3,4-dihydro-2H-benzo[b][1,4]oxazine-2-carboxamide hydrochloride]
25 to 100 | < 5 | Cc1ccc(NC(=O)C2CNc3cc(OC(F)(F)F)ccc3O2)c(CCN2CCOCC2)c1 (stereo not drawn) [Compound 116]
25 to 100 | 5 to 20 | Cc1ccc(NC(=O)C2CNc3cc(OC(F)(F)F)ccc3O2)c(CCN2CC[C@@H](F)C2)c1 (stereo partly drawn) [Compound 119]
25 to 100 | < 5 | CN(C)CC#Cc1cc(C2CCCC2)c(O)cc1NC(=O)C1CNc2cc(F)ccc2O1 (stereo not drawn) [Compound 123]
25 to 100 | < 5 | Cc1cc2c(cc1F)NCC(C(=O)Nc1cc(O)c(C3CCCC3)cc1C#CCN(C)C)O2 (stereo not drawn) [Compound 124]
< 25 | < 5 | CC(C)(C)c1ccc(NC(=O)C2CNc3ccccc3[S+]2[O-])cc1O (stereo not drawn) [Compound 125, N-(4-tert-butyl-3-hydroxy-phenyl)-1-oxo-3,4-dihydro-2H-benzo[b][1,4]thiazine-2-carboxamide]
25 to 100 | < 5 | Cc1cc(C#CCN(C)C)c(NC(=O)C2CNc3cc(OC(F)(F)F)ccc3O2)cc1C (stereo not drawn) [Compound 127]
25 to 100 | < 5 | CC1(C(=O)Nc2cc(O)c(C3CCCC3)cc2C(F)(F)F)CNc2cc(OC(F)(F)F)ccc2O1 (stereo not drawn) [Compound 128]

Reference: patent publication US8999976B2, “Modulators of cystic fibrosis transmembrane conductance regulator” (Vertex Pharmaceuticals Incorporated, priority 2008, dated 2015)
